{"source": "patent EP2951180B1", "about": "“2,6,7,8 SUBSTITUTED PURINES AS HDM2 INHIBITORS” (Merck Sharp & Dohme Corp., priority 2013, dated 2014)", "target": "T1, HDM2 (Homo sapiens, UniProt Q00987)", "T1 construct": "Thioredoxin (N); made in house; host or cells: E. coli strain BL21(DE3)Rosetta", "T1 sequence (Q00987 17-125)": "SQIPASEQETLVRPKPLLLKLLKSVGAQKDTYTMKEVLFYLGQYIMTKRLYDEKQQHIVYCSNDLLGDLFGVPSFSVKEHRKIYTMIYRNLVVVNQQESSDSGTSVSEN", "assay": "HDM2 FRET assay (inhibition of binding of FITC labeled p53-pocket peptide to HDM2)", "details": "for IC50: read-out: FRET IC50; for inhibition at 1 µM: read-out: inh. at 1000 nM (FRET)", "how_it_was_run": "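Final: 0.5 nM His-HDM2, 3 nM FITC peptide, 0.25 nM Tb anti-His Ab; PBS, 0.01% BSA, 0.01% Tween-20; 0.1% DMSO.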", "key": {"[1]": {"details": "0.5 nM HDM2 (residues 17 to 125), 3nM peptide, two hour incubation at room temperature"}}, "note": "Read-outs that look alike come from different tables or passages of the source.", "data": [{"smiles": "C[C@@H](Nc1nc(-c2noc(=O)[nH]2)nc2nc(N3CCCCC3c3cccc(F)c3)n(Cc3ccc(C(F)(F)F)cc3)c12)C1CCC1", "note": "(stereo partly drawn) [Example 9.113, 3-(6-{[(1R)-1-cyclobutylethyl]amino}-8-[2-(3-fluorophenyl)piperidin-1-yl]-7-[4-(trifluoromethyl)benzyl]-7H-purin-2-yl)-1,2,4-oxadiazol-5(4H)-one]", "values": [{"measurement": "IC50", "setting": "Table 9", "value": 25.9, "unit": "nM"}]}, {"smiles": "C[C@@H](Nc1nc(C(=O)O)nc2nc(N3CCC4CCCCC4C3)n(C[C@H]3CC[C@H](C)CC3)c12)C1CCC1", "note": "(stereo partly drawn) [Example 11.22, 6-{[(1R)-1-cyclobutylethyl]amino}-7-[(trans-4-methylcyclohexyl)methyl]-8-(octahydroisoquinolin-2(1H)-yl)-7H-purine-2-carboxylic acid]", "values": [{"measurement": "IC50", "setting": "Table 11", "value": 18, "unit": "nM"}]}, {"smiles": "Cc1cccc(-c2nc3nc(C(=O)O)nc(N4CCCC4C(C)C)c3n2Cc2ccc(C(F)(F)F)cc2)c1", "note": "(stereo not shown) [Example 6.85, 6-[2-(1-methylethyl)pyrrolidin-1-yl]-8-(3-methylphenyl)-7-[4-(trifluoromethyl)benzy 1]-7H-purine-2-carboxylic acid]", "values": [{"measurement": "IC50", "setting": "Table 6", "value": 723, "unit": "nM"}]}, {"smiles": "C[C@@H](Nc1nc(-c2n[nH]c(=O)o2)nc2nc(N3CCC[C@H]3C(F)(F)F)n(C[C@H]3CC[C@H](C)CC3)c12)C1CCC1", "note": "[Example 11.137, 5-(6-{[(1R)-1-cyclobutylethyl]amino}-7-[(trans-4-methylcyclohexyl)methyl]-8-[(2S)-2-(trifluoromethyl)pyrrolidin-1-yl]-7H-purin-2-yl)-1,3,4-oxadiazol-2(3H)-one]", "values": [{"measurement": "IC50", "setting": "Table 11", "value": 0.881, "unit": "nM"}]}, {"smiles": "C[C@H]1COCCN1c1nc2nc(-c3noc(=O)[nH]3)nc(-c3cncc(Cl)c3)c2n1C[C@H]1CC[C@H](C)CC1", "note": "[Example 16.43, 3-{6-(5-chloropyridin-3-yl)-7-[(trans-4-methylcyclohexyl)methyl]-8-[(3S)-3-methylmorpholin-4-yl]-7H -purin-2-yl}-1,2,4-oxadiazol-5(2H)-one]", "values": [{"measurement": "IC50", "setting": "[1]", "value": 239, "unit": "nM"}]}, {"smiles": "C[C@@H](Nc1nc(-c2noc(=O)[nH]2)nc2nc(NC(CO)c3ccccc3)n(C[C@H]3CC[C@H](C)CC3)c12)C1CCC1", "note": "(single isomer, unassigned) [Example 11.122]", "values": [{"measurement": "IC50", "setting": "Table 11", "value": 4.17, "unit": "nM"}]}, {"smiles": "C[C@@H](Nc1nc(C(=O)O)nc2nc(C3CCCCC3c3ccccc3)n(Cc3ccc(C(F)(F)F)cc3)c12)C1CCC1", "note": "(single isomer, unassigned) [Example 21.2]", "values": [{"measurement": "IC50", "setting": "Table 21", "value": 2.36, "unit": "nM"}]}, {"smiles": "CCCCCN(C)c1nc(C(=O)O)nc2nc(-c3cccc(C)c3)n(Cc3ccc(C(F)(F)F)cc3)c12", "note": "[Example 6.91, 6-[methyl(pentyl)amino] -8-(3-methylphenyl)-7-[4-(trifluoromethyl)benzyl]-7H-purine-2-carboxylic acid]", "values": [{"measurement": "IC50", "setting": "Table 6", "value": 731, "unit": "nM"}]}, {"smiles": "C[C@@H](Nc1nc(-c2noc(=O)[nH]2)nc2nc(N(C)CC3(C)CCN(C)C3)n(Cc3ccc(C(F)(F)F)cc3)c12)C1CCC1", "note": "(stereo partly drawn) [Example 9.98, 3-(6-{[(1R)-1-cyclobutylethyl]amino}-8-{[(1,3-dimethylpyrrolidin-3-yl)methyl] (methyl)amino}-7-[4-(trifluoromethyl)benzyl]-7H-purin-2-yl)-1,2,4-oxadiazol-5(4H)-one]", "values": [{"measurement": "IC50", "setting": "Table 9", "value": 71, "unit": "nM"}]}, {"smiles": "C[C@H]1CC[C@H](Cn2c(C3(F)CCCC3)nc3nc(-c4n[nH]c(=O)o4)nc(-c4cncc(Cl)c4)c32)CC1", "note": "[Example 23.40, 5-{6-(5-chloropyridin-3-yl)-8-(1-fluorocyclopentyl)-7-[(trans-4-methylcyclohexyl)methyl] -7H-purin-2-yl}-1,3,4-oxadiazol-2(3H)-one]", "values": [{"measurement": "IC50", "setting": "Table 23", "value": 15, "unit": "nM"}]}, {"smiles": "COCC1(N(C)c2nc3nc(-c4noc(=O)[nH]4)nc(N[C@H](C)C4CCC4)c3n2Cc2ccc(C(F)(F)F)cc2)CC1", "note": "[Example 9.89, 3-(6-{[(1R)-1-cyclobutylethyl]amino}-8-{[1-(methoxymethyl)cyclopropyl] (methyl)amino}-7-[4-(trifluoromethyl)benzyl]-7H-purin-2-yl)-1,2,4-oxadiazol-5(4H)-one]", "values": [{"measurement": "IC50", "setting": "Table 9", "value": 22.6, "unit": "nM"}]}, {"smiles": "COC(C)(C)[C@@H]1COCCN1c1nc2nc(-c3noc(=O)[nH]3)nc(-c3cccc(Cl)c3)c2n1C[C@H]1CC[C@H](C)CC1", "note": "[Example 16.63, 3-{6-(3-chlorophenyl)-8-[(3S)-3-(1-methoxy-1-methylethyl)morpholin-4-yl]-7-[(trans-4-methylcyclohexyl)methyl]-7H-purin-2-yl}-1,2,4-oxadiazol-5(4H)-one]", "values": [{"measurement": "IC50", "setting": "[1]", "value": 19.7, "unit": "nM"}]}, {"smiles": "C[C@@H](Nc1nc(-c2noc(=O)[nH]2)nc2nc(N3CCOCC3(C)C)n(Cc3ccc(C(F)(F)F)cc3)c12)C1CCC1", "note": "[Example 9.88, 3-(6-{[(1R)-1-cyclobutylethyl]amino}-8-(3,3-dimethylmorpholin-4-yl)-7-[4-(trifluoromethyl)benzyl]-7H-purin-2-yl)-1,2,4-oxadiazol-5(4H)-one]", "values": [{"measurement": "IC50", "setting": "Table 9", "value": 12.2, "unit": "nM"}]}, {"smiles": "Cc1cccc(-c2nc3ncnc(NC(CC(=O)O)C4CC4)c3n2Cc2ccc(C(F)(F)F)cc2)c1", "note": "(stereo not shown) [Example 6.18, 3-cyclopropyl-3-({8-(3-methylphenyl)-7-[4-(trifluoromethyl)benzyl]-7H-purin-6-yl}amino)propanoic acid]", "values": [{"measurement": "IC50", "setting": "Table 6", "value": 5190, "unit": "nM"}]}, {"smiles": "C[C@@H](Nc1nc(C(=O)O)nc2nc(C3CCCCC3)n(C[C@H]3CC[C@H](C)CC3)c12)C1CCC1", "note": "[Example 21.38, 6-{[(1R)-1-cyclobutylethyl]amino}-8-cyclohexyl-7-[(trans-4-methylcyclohexyl)methyl]-7H-purine-2-carboxylic acid]", "values": [{"measurement": "IC50", "setting": "Table 21", "value": 2.68, "unit": "nM"}]}, {"smiles": "Cc1cccc(-c2nc3nc(C(=O)O)nc(NC(C)C4CC4C)c3n2Cc2ccc(C(F)(F)F)cc2)c1", "note": "(stereo not shown) [Example 6.37, 6-{[1-(2-methylcyclopropyl)ethyl]amino}-8-(3-methylphenyl)-7-[4-(trifluoromethyl)benzyl]-7H-purine-2-carboxylic acid]", "values": [{"measurement": "IC50", "setting": "Table 6", "value": 360, "unit": "nM"}]}, {"smiles": "Cc1nn(C)cc1CNc1nc2nc(-c3noc(=O)[nH]3)nc(N[C@H](C)C3CCC3)c2n1C[C@H]1CC[C@H](C)CC1", "note": "[Example 11.109, 3-(6-{[(1R)-1-cyclobutylethyl]amin ο}-8-{[(1,3-dimethyl-1H-pyrazol-4-yl)methyl]amino} -7-[(trans-4-methylcyclohexyl)methyl]-7H-purin-2-yl)-1,2,4-oxadiazol-5(2H)-one]", "values": [{"measurement": "IC50", "setting": "Table 11", "value": 55.6, "unit": "nM"}]}, {"smiles": "Cc1cccc(-c2nc3nc(C(=O)O)nc(N[C@H](CC(O)CO)C4CCC4)c3n2Cc2ccc(C(F)(F)F)cc2)c1", "note": "(stereo partly drawn) [Example 7.15, 6-{[(1R)-1-cyclobutyl-3,4-dihydroxybutyl]amino}-8-(3-methylphenyl)-7-[4-(trifluoromethyl)benzyl]-7H-purine-2-carboxylic acid]", "values": [{"measurement": "IC50", "setting": "Table 7", "value": 26.5, "unit": "nM"}]}, {"smiles": "Cc1noc([C@@H]2COCCN2c2nc3nc(-c4n[nH]c(=O)o4)nc(-c4cccc(Cl)c4)c3n2C[C@H]2CC[C@H](C)CC2)n1", "note": "[Example 16.121, 5-{6-(3-chlorophenyl)-7-[(trans-4-methylcyclohexyl)methyl]-8-[(3S)-3-(3-methyl-1,2,4-oxadiazol-5-yl)morpholin-4-yl]-7H-purin-2-yl}-1,3,4-oxadiazol-2(3H)-one]", "values": [{"measurement": "IC50", "setting": "[1]", "value": 9.18, "unit": "nM"}]}, {"smiles": "Cc1cccc(-c2nc3nc(C(=O)O)nc(NC4CCCCC4C)c3n2Cc2ccc(Br)cc2)c1", "note": "(stereo not shown) [Example 6.9, 7-(4-bromobenzyl)-6-[(2-methylcyclohexyl)amino]-8-(3-methylphenyl)-7H-purine-2-carboxylic acid]", "values": [{"measurement": "IC50", "setting": "Table 6", "value": 22.3, "unit": "nM"}]}, {"smiles": "C[C@@H](Nc1nc(-c2noc(=O)[nH]2)nc2nc(N(C)CC3CCCN(C)C3)n(Cc3ccc(C(F)(F)F)cc3)c12)C1CCC1", "note": "(stereo partly shown) [Example 9.99]", "values": [{"measurement": "IC50", "setting": "Table 9", "value": 45, "unit": "nM"}]}, {"smiles": "CC(c1ccccc1)c1nc2nc(-c3noc(=O)[nH]3)nc(N[C@H](C)C3CCC3)c2n1C[C@H]1CC[C@H](C)CC1", "note": "(single isomer, unassigned) [Example 21.15]", "values": [{"measurement": "IC50", "setting": "Table 21", "value": 2.04, "unit": "nM"}]}, {"smiles": "Cc1cccc(-c2nc3nc(C(=O)O)nc(NC(C)CC(C)C)c3n2Cc2ccc(C(F)(F)F)cc2)c1", "note": "(stereo not shown) [Example 6.62, 6-[(1,3-dimethylbutyl)amino]-8-(3-methylphenyl)-7-[4-(trifluoromethyl)benzyl]-7H-purine-2-carboxylic acid]", "values": [{"measurement": "inhibition at 1 µM", "value": 34, "unit": "%"}]}, {"smiles": "COc1ccc(C)cc1-c1nc2nc(C(=O)O)nc(N[C@H](C)C3CCC3)c2n1C[C@H]1CC[C@H](C)CC1", "note": "[Example 15.13, 6-{[(1R)-1-cyclobutylethyl]amino}-8-(2-methoxy-5-methylphenyl)-7-[(trans-4-methylcyclohexyl)methyl]-7H-purine-2-carboxylic acid]", "values": [{"measurement": "IC50", "setting": "[1]", "value": 4.96, "unit": "nM"}]}, {"smiles": "C[C@@H](Nc1nc(-c2noc(=O)[nH]2)nc2nc(C3OCc4ccccc43)n(C[C@H]3CC[C@H](C)CC3)c12)C1CCC1", "note": "(stereo partly drawn) [Example 22.80, 3-(6-{[(1R)-1-cyclobutylethyl]amino}-8-(1,3-dihydro-2-benzofuran-1-yl)-7-[(trans-4-methylcyclohexyl)methyl]-7H-purin-2-yl)-1,2,4-oxadiazol-5(4H)-one]", "values": [{"measurement": "IC50", "setting": "Table 22", "value": 2.47, "unit": "nM"}]}, {"smiles": "CC[C@H]1CC[C@H](Cn2c(N3CCOC[C@H]3c3ccccc3)nc3nc(-c4noc(=O)[nH]4)nc(N[C@H](C)C4CCC4)c32)CC1", "note": "[Example 18.22, 3-(6-{[(1R)-1-cyclobutylethyl]amino}-7-[(trans-4-ethylcyclohexyl)methyl]-8-[(3R)-3-phenylmorpholin-4-yl]-7H-purin-2-yl)-1,2,4-oxadiazol-5(4H)-one]", "values": [{"measurement": "IC50", "setting": "Table 18", "value": 3.86, "unit": "nM"}]}, {"smiles": "Cc1cccc(-c2nc3nc(C(=O)O)nc(N(C)CCC(C)C)c3n2Cc2ccc(C(F)(F)F)cc2)c1", "note": "[Example 6.77, 6-[methyl(3-methylbutyl)amino]-8-(3-methylphenyl)-7-[4-(trifluoromethyl)benzyl]-7H-purine-2-carboxylic acid]", "values": [{"measurement": "inhibition at 1 µM", "value": 36, "unit": "%"}]}, {"smiles": "C[C@@H]1[C@@H](C)OCCN1c1nc2nc(-c3noc(=O)[nH]3)nc(-c3cncc(Cl)c3)c2n1C[C@H]1CC[C@H](C)CC1", "note": "[Example 16.136, 3-{6-(5-chloropyridin-3-yl)-8-[(2R,3R)-2,3-dimethylmorpholin-4-yl]-7-[(trans-4-methylcyclohexyl)methyl]-7H-purin-2-yl}-1,2,4-oxadiazol-5(4H)-one]", "values": [{"measurement": "IC50", "setting": "[1]", "value": 7.19, "unit": "nM"}]}]}
